In PMC11335300, “The novel function of an orphan pheromone receptor reveals the sensory specializations of two potential distinct types of sex pheromones in noctuid moth” (Cellular and Molecular Life Sciences: CMLS, 2024):

Target: T1, HarmOR11/Orco (Helicoverpa armigera, UniProt A0A7D5JUD6)
T1 construct: full-length HarmOR11 and HarmOrco cloned from antennal cDNA into pT7Ts; cRNAs co-injected in Xenopus laevis oocytes; heteromeric channel, exact stoichiometry unknown (2:2 only modelled); with Odorant receptor coreceptor
T1 sequence (A0A7D5JUD6 1-431): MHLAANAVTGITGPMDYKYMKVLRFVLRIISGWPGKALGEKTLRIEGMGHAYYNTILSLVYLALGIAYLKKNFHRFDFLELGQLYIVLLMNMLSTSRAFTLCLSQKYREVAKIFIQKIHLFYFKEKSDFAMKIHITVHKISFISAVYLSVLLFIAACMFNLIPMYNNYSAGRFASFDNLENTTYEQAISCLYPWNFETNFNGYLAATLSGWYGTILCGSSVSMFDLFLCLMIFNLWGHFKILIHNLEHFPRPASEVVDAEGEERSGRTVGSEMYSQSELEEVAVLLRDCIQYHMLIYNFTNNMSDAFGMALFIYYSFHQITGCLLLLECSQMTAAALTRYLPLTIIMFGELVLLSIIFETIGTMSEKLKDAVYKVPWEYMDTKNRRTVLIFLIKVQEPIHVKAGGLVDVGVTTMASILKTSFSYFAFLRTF
T1 sequence (E5KJL4 1-473 partner): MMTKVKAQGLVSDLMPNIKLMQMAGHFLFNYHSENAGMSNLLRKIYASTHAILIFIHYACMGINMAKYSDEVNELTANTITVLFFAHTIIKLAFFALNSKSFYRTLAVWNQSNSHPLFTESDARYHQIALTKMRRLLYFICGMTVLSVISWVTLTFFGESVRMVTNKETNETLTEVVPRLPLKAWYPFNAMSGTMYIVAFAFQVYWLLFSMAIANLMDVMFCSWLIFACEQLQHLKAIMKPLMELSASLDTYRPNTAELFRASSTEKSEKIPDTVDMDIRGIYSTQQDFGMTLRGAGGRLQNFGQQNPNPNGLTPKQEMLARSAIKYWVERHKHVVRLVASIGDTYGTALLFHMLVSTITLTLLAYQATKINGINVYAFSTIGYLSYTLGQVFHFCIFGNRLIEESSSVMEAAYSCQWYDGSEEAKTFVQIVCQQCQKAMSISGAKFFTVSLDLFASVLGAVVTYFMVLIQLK
Test: two-electrode voltage clamp of Xenopus oocytes co-expressing HarmOR11/Orco
Type: cell-based
Details: agonist; holding potential -80 mV; Ringer's buffer pH 7.6; from DMSO stock; unit printed as mol (concentration meant)

- EC50: 1.637e-05 mol
SMILES: CC/C=C\C/C=C\C/C=C\CCCCCCCCCCC [3Z,6Z,9Z-21:H, 3Z,6Z,9Z-heneicosatriene]
